Measured values as given in patent US10004701B2, “Methods and compositions for treating infection” (UNIVERSITY OF ROCHESTER, priority 2012, dated 2018).
Counter-ions that a name gives are not always drawn. Like-named read-outs stand apart in the source and are kept apart here.

Key:
Assay in all cases: AK assay 384-well format, Prestwick library screening
[1] = system: E. faecium; assay type: cell-based, Enterococcus faecium; settings: 50 μM final drug concentration; for fold induction at 50 µM: Enterococcus faecium, 3 h
[2] = system: S. aureus strain USA300-0114; assay type: cell-based, Staphylococcus aureus; settings: 50 μM final drug concentration; for fold induction at 50 µM: Staphylococcus aureus, USA300, 3 h
[3] = system: K. pneumoniae; assay type: cell-based, Klebsiella pneumoniae; settings: 50 μM final drug concentration; for fold induction at 50 µM: Klebsiella pneumoniae, 3 h
[4] = system: A. baumannii strain 98-37-09; assay type: cell-based, Acinetobacter baumannii; settings: 50 μM final drug concentration; for fold induction at 50 µM: Acinetobacter baumannii, 983709, 3 h
[5] = system: P. aeruginosa; assay type: cell-based, Pseudomonas aeruginosa; settings: 50 μM final drug concentration; for fold induction at 50 µM: Pseudomonas aeruginosa, 3 h
[6] = system: E. cloacae; assay type: cell-based, Enterobacter cloacae; settings: 50 μM final drug concentration; for fold induction at 50 µM: Enterobacter cloacae, 3 h
[7] = system: E. coli; assay type: cell-based, Escherichia coli; settings: 50 μM final drug concentration; for fold induction at 50 µM: Escherichia coli, 3 h
[8] = 384-well format, cutoff for positive-scoring molecules 3-fold increase
[9] = 384-well format, cutoff for positive-scoring molecules 3-fold increase, read-out: AK-based Prestwick Library Screening Results, E. faecium (increase in extracellular AK activity)
[10] = 384-well format, cutoff for positive-scoring molecules 3-fold increase, read-out: AK-based Prestwick Library Screening Results, S. aureus (increase in extracellular AK activity)
[11] = 384-well format, cutoff for positive-scoring molecules 3-fold increase, read-out: AK-based Prestwick Library Screening Results, K. pneumoniae (increase in extracellular AK activity)
[12] = 384-well format, cutoff for positive-scoring molecules 3-fold increase, read-out: AK-based Prestwick Library Screening Results, A. baumannii (increase in extracellular AK activity)
[13] = 384-well format, cutoff for positive-scoring molecules 3-fold increase, read-out: AK-based Prestwick Library Screening Results, P. aeruginosa (increase in extracellular AK activity)
[14] = 384-well format, cutoff for positive-scoring molecules 3-fold increase, read-out: AK-based Prestwick Library Screening Results, E. cloacae (increase in extracellular AK activity)
[15] = 384-well format, cutoff for positive-scoring molecules 3-fold increase, read-out: AK-based Prestwick Library Screening Results, E. coli (increase in extracellular AK activity)

## Cc1c(O)c(=O)n(-c2ccccc2)n1C [Antipyrine, 4-hydroxy]
[1]; [8]
  AK-based Prestwick Library Screening Results, E. faecium (increase in extracellular AK activity): 1.0
[2]; [8]
  AK-based Prestwick Library Screening Results, S. aureus (increase in extracellular AK activity): 0.7
[3]; [8]
  AK-based Prestwick Library Screening Results, K. pneumoniae (increase in extracellular AK activity): 0.7
[4]; [8]
  AK-based Prestwick Library Screening Results, A. baumannii (increase in extracellular AK activity): 0.8
[5]; [8]
  AK-based Prestwick Library Screening Results, P. aeruginosa (increase in extracellular AK activity): 0.8
[6]; [8]
  AK-based Prestwick Library Screening Results, E. cloacae (increase in extracellular AK activity): 1.0
[7]; [8]
  AK-based Prestwick Library Screening Results, E. coli (increase in extracellular AK activity): 0.9

## Clc1ccc(C(Cn2ccnc2)OCc2c(Cl)cccc2Cl)c(Cl)c1 (stereo not shown) [Isoconazole]
[1]; [9]
  fold induction at 50 µM: 1.8
[2]; [10]
  fold induction at 50 µM: 5.2
[3]; [11]
  fold induction at 50 µM: 1.4
[4]; [12]
  fold induction at 50 µM: 5.6
[5]; [13]
  fold induction at 50 µM: 1.3
[6]; [14]
  fold induction at 50 µM: 1.7
[7]; [15]
  fold induction at 50 µM: 1.8

## CC(CNC1CCCCC1)OC(=O)c1ccccc1 (stereo not shown) [Hexylcaine hydrochloride]
[1]; cutoff for positive-scoring molecules 3-fold increase, read-out: AK-based Prestwick Library Screening Results, E. faecium (fold increase in extracellular AK activity)
  fold induction at 50 µM: 1
[2]; cutoff for positive-scoring molecules 3-fold increase, read-out: AK-based Prestwick Library Screening Results, S. aureus (fold increase in extracellular AK activity)
  fold induction at 50 µM: 1.3
[3]; cutoff for positive-scoring molecules 3-fold increase, read-out: AK-based Prestwick Library Screening Results, K. pneumoniae (fold increase in extracellular AK activity)
  fold induction at 50 µM: 1
[4]; cutoff for positive-scoring molecules 3-fold increase, read-out: AK-based Prestwick Library Screening Results, A. baumannii (fold increase in extracellular AK activity)
  fold induction at 50 µM: 1.3
[5]; cutoff for positive-scoring molecules 3-fold increase, read-out: AK-based Prestwick Library Screening Results, P. aeruginosa (fold increase in extracellular AK activity)
  fold induction at 50 µM: 1.1
[6]; cutoff for positive-scoring molecules 3-fold increase, read-out: AK-based Prestwick Library Screening Results, E. cloacae (fold increase in extracellular AK activity)
  fold induction at 50 µM: 1.4
[7]; cutoff for positive-scoring molecules 3-fold increase, read-out: AK-based Prestwick Library Screening Results, E. coli (fold increase in extracellular AK activity)
  fold induction at 50 µM: 1.2

## CN1CCOC(c2ccccc2)c2ccccc2C1 (stereo not shown) [Nefopam hydrochloride]
[1]; planktonic E. faecium, 384-well, cutoff for positive-scoring molecules 3-fold increase, read-out: AK-based Prestwick Library Screening Results: E. faecium (increase in extracellular AK activity)
  fold induction at 50 µM: 1
[2]; planktonic S. aureus, 384-well, cutoff for positive-scoring molecules 3-fold increase, read-out: AK-based Prestwick Library Screening Results: S. aureus (increase in extracellular AK activity)
  fold induction at 50 µM: 1.1
[3]; planktonic K. pneumoniae, 384-well, cutoff for positive-scoring molecules 3-fold increase, read-out: AK-based Prestwick Library Screening Results: K. pneumoniae (increase in extracellular AK activity)
  fold induction at 50 µM: 0.9
[4]; planktonic A. baumannii, 384-well, cutoff for positive-scoring molecules 3-fold increase, read-out: AK-based Prestwick Library Screening Results: A. baumannii (increase in extracellular AK activity)
  fold induction at 50 µM: 1.4
[5]; planktonic P. aeruginosa, 384-well, cutoff for positive-scoring molecules 3-fold increase, read-out: AK-based Prestwick Library Screening Results: P. aeruginosa (increase in extracellular AK activity)
  fold induction at 50 µM: 1.2
[6]; planktonic E. cloacae, 384-well, cutoff for positive-scoring molecules 3-fold increase, read-out: AK-based Prestwick Library Screening Results: E. cloacae (increase in extracellular AK activity)
  fold induction at 50 µM: 1.4
[7]; planktonic E. coli, 384-well, cutoff for positive-scoring molecules 3-fold increase, read-out: AK-based Prestwick Library Screening Results: E. coli (increase in extracellular AK activity)
  fold induction at 50 µM: 1.2

## COc1ccn(C)c(=O)c1C#N [Ricinine]
[1]; planktonic, […], read-out: AK-based Prestwick Library Screening Results, E. faecium (fold increase in extracellular AK activity)
  fold induction at 50 µM: 0.9
[2]; planktonic, […], read-out: AK-based Prestwick Library Screening Results, S. aureus (fold increase in extracellular AK activity)
  fold induction at 50 µM: 0.9
[3]; planktonic, […], read-out: AK-based Prestwick Library Screening Results, K. pneumoniae (fold increase in extracellular AK activity)
  fold induction at 50 µM: 0.8
[4]; planktonic, […], read-out: AK-based Prestwick Library Screening Results, A. baumannii (fold increase in extracellular AK activity)
  fold induction at 50 µM: 0.8
[5]; planktonic, […], read-out: AK-based Prestwick Library Screening Results, P. aeruginosa (fold increase in extracellular AK activity)
  fold induction at 50 µM: 0.7
[6]; planktonic, […], read-out: AK-based Prestwick Library Screening Results, E. cloacae (fold increase in extracellular AK activity)
  fold induction at 50 µM: 1.3
[7]; planktonic, […], read-out: AK-based Prestwick Library Screening Results, E. coli (fold increase in extracellular AK activity)
  fold induction at 50 µM: 0.8

## CN(C)CCC=C1c2ccccc2CCc2ccccc21.Cl [Amitryptiline hydrochloride]
[1]; planktonic E. faecium, 384-well, […]
  AK-based Prestwick Library Screening Results: E. faecium (increase in extracellular AK activity): 1.0
[2]; planktonic S. aureus, 384-well, […]
  AK-based Prestwick Library Screening Results: S. aureus (increase in extracellular AK activity): 1.4
[3]; planktonic K. pneumoniae, 384-well, […]
  AK-based Prestwick Library Screening Results: K. pneumoniae (increase in extracellular AK activity): 1.1
[4]; planktonic A. baumannii, 384-well, […]
  AK-based Prestwick Library Screening Results: A. baumannii (increase in extracellular AK activity): 1.3
[5]; planktonic P. aeruginosa, 384-well, […]
  AK-based Prestwick Library Screening Results: P. aeruginosa (increase in extracellular AK activity): 1.0
[6]; planktonic E. cloacae, 384-well, […]
  AK-based Prestwick Library Screening Results: E. cloacae (increase in extracellular AK activity): 1.8
[7]; planktonic E. coli, 384-well, […]
  AK-based Prestwick Library Screening Results: E. coli (increase in extracellular AK activity): 1.2

## CCCCOc1ccc(C(=O)CCN2CCCCC2)cc1 [Dyclonine hydrochloride]
[1]; [9]
  fold induction at 50 µM: 1
[2]; [10]
  fold induction at 50 µM: 0.9
[3]; [11]
  fold induction at 50 µM: 0.7
[4]; [12]
  fold induction at 50 µM: 0.9
[5]; [13]
  fold induction at 50 µM: 1
[6]; [14]
  fold induction at 50 µM: 1.1
[7]; [15]
  fold induction at 50 µM: 1

## COc1cc(N)c(Cl)cc1C(=O)NC1CCN(CCCOc2ccc(F)cc2)CC1OC (stereo not shown) [Cisapride]
[1]; planktonic E. faecium, cutoff for positive-scoring molecules 3-fold increase, read-out: AK-based Prestwick Library Screening Results, E. faecium (increase in extracellular AK activity)
  fold induction at 50 µM: 0.9
[2]; planktonic S. aureus, cutoff for positive-scoring molecules 3-fold increase, read-out: AK-based Prestwick Library Screening Results, S. aureus (increase in extracellular AK activity)
  fold induction at 50 µM: 0.6
[3]; planktonic K. pneumoniae, cutoff for positive-scoring molecules 3-fold increase, read-out: AK-based Prestwick Library Screening Results, K. pneumoniae (increase in extracellular AK activity)
  fold induction at 50 µM: 0.7
[4]; planktonic A. baumannii, cutoff for positive-scoring molecules 3-fold increase, read-out: AK-based Prestwick Library Screening Results, A. baumannii (increase in extracellular AK activity)
  fold induction at 50 µM: 1.1
[5]; planktonic P. aeruginosa, cutoff for positive-scoring molecules 3-fold increase, read-out: AK-based Prestwick Library Screening Results, P. aeruginosa (increase in extracellular AK activity)
  fold induction at 50 µM: 0.9
[6]; planktonic E. cloacae, cutoff for positive-scoring molecules 3-fold increase, read-out: AK-based Prestwick Library Screening Results, E. cloacae (increase in extracellular AK activity)
  fold induction at 50 µM: 0.9
[7]; planktonic E. coli, cutoff for positive-scoring molecules 3-fold increase, read-out: AK-based Prestwick Library Screening Results, E. coli (increase in extracellular AK activity)
  fold induction at 50 µM: 0.9

## Nc1ccc(S(=O)(=O)c2ccc(N)cc2)cc1 [Dapsone]
[1]; [9]
  fold induction at 50 µM: 0.9
[2]; [10]
  fold induction at 50 µM: 0.6
[3]; [11]
  fold induction at 50 µM: 0.7
[4]; [12]
  fold induction at 50 µM: 1.3
[5]; [13]
  fold induction at 50 µM: 0.8
[6]; [14]
  fold induction at 50 µM: 1.1
[7]; [15]
  fold induction at 50 µM: 0.8

## CCC(C)(CN(C)C)OC(=O)c1ccccc1.Cl (stereo not shown) [Amyleine hydrochloride]
[1]; 384-well format, […]
  AK-based Prestwick Library Screening Results, E. faecium (increase in extracellular AK activity): 1.1
[2]; 384-well format, […]
  AK-based Prestwick Library Screening Results, S. aureus (increase in extracellular AK activity): 1.1
[3]; 384-well format, […]
  AK-based Prestwick Library Screening Results, K. pneumoniae (increase in extracellular AK activity): 0.8
[4]; 384-well format, […]
  AK-based Prestwick Library Screening Results, A. baumannii (increase in extracellular AK activity): 1.1
[5]; 384-well format, […]
  AK-based Prestwick Library Screening Results, P. aeruginosa (increase in extracellular AK activity): 0.9
[6]; 384-well format, […]
  AK-based Prestwick Library Screening Results, E. cloacae (increase in extracellular AK activity): 1.2
[7]; 384-well format, […]
  AK-based Prestwick Library Screening Results, E. coli (increase in extracellular AK activity): 1.4
